Test results as given in publication PMC6996304, “Tumor gene therapy by systemic delivery of plasmid DNA with cell‐penetrating peptides” (FASEB bioAdvances, 2018).
Entries after “also recorded” stand apart in the source; their conditions may differ.

What was measured:
[1] = target: active human recombinant MMP-2 enzyme (Homo sapiens, UniProt P08253)
Protocol: Cleavage assay of MMP-2 cleavable CPPs that contain iRGD. The peptides were incubated with
The mixture was then analyzed with RP-UPLC (C18 reverse phase column, eluted with 20-
80% acetonitrile in water, 0.1% TFA). […] Enzyme digestion
products were confirmed by MALDI-ToF mass spectrometry.
Peptide cleavability by MMP-2
To assess the cleavability of iRGD-modified CPPs by MMP-2, the peptides were incubated
with recombinant MMP-2 (0.1 mg/ml, Calbiochem, Germany) in MQ water for 40 minutes at
37°C and analyzed with UPLC.

[2] = system: sc HT1080 tumors; test: Tumor growth reduction study, HT1080 fibrosarcoma model; format: in vivo, mouse; details: nude athymic mice, sc HT1080, CPP/pshVEGF CR4, 0.8 mg/kg every other day, three doses (two iv, third ip), n = 10, compared to pshVEGF alone; Figure 3A
Protocol: (§1) For in vivo studies, the plasmid dose was 0.8 mg/kg per animal; the pDNA was mixed with the CPP at CR 4 in MQ water, keeping the final complex volume at 100 μL. After 40‐minute incubation, 100 μL of 10% glucose was added to the complexes and injected immediately via tail vein. The luciferase encoding plasmid used in reporter gene experiments in vivo was p‐CMV‐Luc2, marked as pLuc2 in the text, which is optimized for in vivo use.
(§2) If not stated otherwise, the PEGylation rate of peptides in the CPP/pDNA complexes was 50% in all in vivo experiments.
(§3) Mouse Neuro2a and HT1080 tumor xenografts were induced by resuspending 1 × 10^6 cells in 100 μL volume of ice‐cold un‐supplemented DMEM and implanting the cell suspension subcutaneously to the right flank of the mouse (Neuro2a: 4‐ to 6‐week‐old BALB/c; HT1080: Hsd:Athymic Nude‐Foxn1nu female, 4‐6 weeks old, Harlan, UK). The 4T1 orthotopic tumors were induced by injecting 5 × 10^4 cells in 50 μL of ice‐cold un‐supplemented RPMI into the fourth mammary fat pad of 4‐ to 8‐week‐old female BALB/c mice.
(§4) Before treatment, the mice were assigned into six groups of 10. CPP/pshVEGF treatment for HT1080 tumor‐bearing animals was started at the first appearance of tumor growth (tumor size of approximately 100 mm^3). […] The tumor sizes were measured with calipers three times a week. […]

[3] = system: Neuro2a cells; test: In vitro transfection of CPP/pGL3 complexes, luciferase activity, with and without MMP-2 treatment; format: cell-based, mouse; details: CPP/pGL3 complexes CR3 incubated with MMP-2 (3.8 ng/μL) 37 °C 40 min before transfection, 24 h, Figure 1B
Protocol: CPP/pDNA nanoparticles for cell culture assays were prepared by mixing plasmid DNA (0.5 μg per well of a 24‐well plate) with CPPs, at CPP/pDNA charge ratio 3 (CR3) in MQ water with final volume of 105 μL, followed by a 40‐minute incubation at room temperature. pGL3 Control (Promega, Stockholm, Sweden) was used as the luciferase encoding plasmid since it is best suitable for in vitro use.
Twenty‐four hours before the experiment 3 × 10^4 Neuro2a cells were seeded onto 24‐well plates. Peptide/pDNA complexes at CR3 were prepared as described above. The transfection mixture was added to cells containing full media, and it made up 1/10 of the total cell medium volume during the time of transfection. Lipofectamine™ 2000 (Invitrogen, Carlsbad, CA) was used according to the manufacturer's protocol and added to the cells in serum‐containing medium. After 4‐hour incubation with the complexes, an additional 1 mL of fresh medium was added to the cells and incubated for an additional 20 hours. Thereafter, the media was removed, cells were lyzed with 100 μL 0.1% Triton X‐100 in PBS for 15 minutes at 4°C. Luciferase activity was measured using Promega's luciferase assay (Luciferase Assay System, Promega) according to the manufacturer's protocol on GLOMAX™ 96 microplate luminometer (Promega) and normalized to protein content, which was measured with the BioRad Protein Assay (Hercules, CA) according to the manufacturer's protocol.
To study the effect of MMP‐2 cleavage on transfection efficiency, active recombinant MMP‐2 enzyme (0.1 mg/mL, Calbiochem, Germany) was added to the CPP/pDNA complexes in MQ (final MMP‐2 concentration 3.8 ng/μL), and incubated at 37°C for 40 minutes prior transfection.

[4] = system: BALB/c mice bearing subcutaneous Neuro2a tumors; test: Reporter gene delivery in vivo (CPP/pLuc2, luciferase in tissues); design: species or system mouse; details: for tumor specificity of reporter gene induction (luciferase levels in tissues): one iv dose of CPP/pLuc2 at CR4, plasmid 0.8 mg/kg, PEGylation rate 50%, tissues 24 h after injection
Protocol: as §1, §2, §3
Twenty‐four hours after the intravenous administration of CPP/pLuc2 complexes, the mice bearing Neuro2a tumors were sacrificed by cervical dislocation and tissues were harvested and snap‐frozen on dry ice. The tissues were homogenized using Precellys®24‐Dual homogenization system (Bertin Technologies, France) and lyzed with 1 × Promega lysis buffer (Promega). Luminescence was analyzed as described in in vitro transfection methods section.

[5] = system: orthotopic 4T1 tumors; test: Tumor growth reduction study, orthotopic 4T1 breast tumor model; format: in vivo, mouse; details: BALB/c mice, orthotopic 4T1, treatment from 1 day after implantation, CPP/pshVEGF CR4, 0.8 mg/kg every other day, three doses, n = 10; Figure 3B
Protocol: as §1, §2, §3, §4

[6] = system: tumors; details: systemic reporter gene plasmid delivery; cited from earlier work
Description: In a previous paper MMP‐activatable CPPs PepFect144 (PF144), PepFect145 (PF145), and PepFect146 (PF146) were designed, where the cell penetration ability of the CPPs was reversibly masked by attaching a PEG molecule to the C‐terminus of the peptides via an MMP‐2/‐9 cleavable linker. […] Although plasmid DNA has been successfully used in combination with small molecule therapeutics,31, 32 achieving a clinical effect by plasmid delivery ...

[7] = system: Neuro2a cells; details: CPP/pLuc2 CR3, 0.1 μg pDNA, 4 h at 37 °C in 50% FBS (MQ for controls), then transfection of Neuro2a cells, luciferase read-out; Figure 2A
Protocol: The stability of the CPP/pDNA nanoparticles to degradation and dissociation by components found in serum was assessed by reporter gene expression in cells after 4 hours incubation of CPP/pLuc2 complexes with 50% FBS. Complexes were formed as described previously, with 0.1 μg pDNA (CR 3), and incubated at room temperature for 40 minutes. After this, FBS (or MQ for controls) was added to the complexes, and the mixture incubated at 37°C for 4 hours (final FBS concentration 50%). For transfection, 1 × 10^4 Neuro2a cells were seeded to transparent 96‐well plates in supplemented DMEM media 24 hours before experiment. On the day of the experiment, the cells were transfected and luciferase expression analyzed as described in previous section (In vitro transfection).

[8] = Heparin displacement assay (PicoGreen); format: physicochemical; details: CPP/pLuc2 CR3, 0.1 μg pDNA per well, MQ water, heparin 30 min 37 °C, 100% = naked pDNA, Figure 2B
Protocol: Accessibility of pDNA in complexes formed between pDNA and CPPs was assessed by Quant‐iT™ PicoGreen® (Thermo Fisher Scientific) assay in mQ water. CPP/pLuc2 nanoparticles at CR3 were prepared as described previously, and transferred to black 96 well plates (0.1 μg of pDNA per well). Heparin solution was added into the wells and incubated at 37°C for 30 minutes. For detection, PicoGreen® was added to the wells, and incubated for 20 minutes. Fluorescence was measured by fluorimeter (λex = 492 nm, λem = 535 nm) (SynergyMx, BioTek).

Sequence of active human recombinant MMP-2 enzyme (P08253 110-660): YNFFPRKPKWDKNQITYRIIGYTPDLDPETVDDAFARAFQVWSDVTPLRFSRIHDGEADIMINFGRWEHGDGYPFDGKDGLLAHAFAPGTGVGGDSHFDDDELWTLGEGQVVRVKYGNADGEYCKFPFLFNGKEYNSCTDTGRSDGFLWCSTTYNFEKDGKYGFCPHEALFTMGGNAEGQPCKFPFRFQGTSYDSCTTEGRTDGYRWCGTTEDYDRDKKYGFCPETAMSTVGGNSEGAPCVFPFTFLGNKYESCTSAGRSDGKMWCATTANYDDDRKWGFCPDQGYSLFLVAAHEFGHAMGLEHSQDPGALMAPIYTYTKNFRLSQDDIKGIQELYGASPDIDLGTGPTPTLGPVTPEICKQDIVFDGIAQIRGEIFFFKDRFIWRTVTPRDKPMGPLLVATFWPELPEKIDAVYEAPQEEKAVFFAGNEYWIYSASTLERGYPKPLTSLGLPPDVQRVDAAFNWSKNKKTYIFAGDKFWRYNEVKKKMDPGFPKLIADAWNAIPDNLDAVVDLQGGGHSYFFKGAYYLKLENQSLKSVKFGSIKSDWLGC

Substance	effect on tumor growth, HT1080 model [2]	transfection efficiency after incubation with MMP-2 enzyme (enzyme-dependent activation) [3]	tumor specificity of reporter gene induction (luciferase levels in tissues) ([4]; Figure 1C)	effect on tumor growth, 4T1 model [5]	tissue/tumor specificity of plasmid DNA delivery in vivo [6]	sensitivity of CPP/pDNA nanoparticles to serum treatment (transfection efficiency before and after FBS) [7]	further results
Stearyl‐AGYLLGKLLOOLAAAALOOLL‐X‐LALGPG‐PEG1000‐C*RGDKGPDC*‐NH2 (disulfide) [PF148‐iRGD]	no effect on tumor size	no enzyme‐dependent activation	unable to induce luciferase expression in any tissue	no effect on tumor size			cleavability of the MMP-2 sensitive linker by the MMP-2 enzyme [1]: resistant to MMP‐2 degradation
Stearyl‐AGYLLGKLLOOLAAAALOOLL‐X‐PLGLAG‐PEG1000‐C*RGDKGPDC*‐NH2 (disulfide) [PF145‐iRGD, iRGD‐functionalized PF145]	did not translate into efficient tumor treatment	fully restored to the level of PF14	preserved its tumor specificity; also recorded: minimal luciferase induction in healthy tissues	performs worse than PF144			reporter gene induction at different PEGylation rates ([4]; PF145-iRGD/pLuc2 CR4, 20 µg, PEGylation rates 40%, 50%, 70% (rest PF14), iv, 24 h, N=3 per group, Figure S2): 50% being the most effective of the three
Stearyl‐AGYLLGKLLOOLAAAALOOLL‐X‐PLGLAG‐PEG600‐C*RGDKGPDC*‐NH2 (disulfide) [PF144‐iRGD, iRGD‐functionalized PF144]		fully restored to the level of PF14	decreased the tumor specificity; also recorded: reduction in tumor specificity				
C*RGDKGPDC*‐NH2 (disulfide) [iRGD, tumor‐homing peptide, αvβ3 integrin targeting ligand, reference compound]							luciferase levels in tissues on coadministration of standalone iRGD with CPP/pLuc2 nanoparticles ([4]; iRGD coadministered (molar amount equal to that of PF14) with PF144 or PF145 nanoparticles, iv, CR4, 0.8 mg/kg plasmid, 24 h, Figure 1C): high luciferase levels in spleen; also recorded: high reporter gene expression in the spleen
Stearyl‐AGYLLGKLLOOLAAAALOOLL‐X‐PLGLAG‐PEG600‐NH2 [PF144]					efficient tumor specificity; also recorded: successful in mediating tumor‐specific gene delivery	highest stability to serum and heparin treatment out of all the PEGylated peptides	resistance of pDNA in complexes to heparin displacement (relative PicoGreen fluorescence) [8]: significantly more resistant to heparin treatment than other PEGylated CPPs tested
Stearyl‐AGYLLGKLLOOLAAAALOOLL‐X‐PLGLAG‐PEG1000‐NH2 [PF145]					successful in mediating tumor‐specific gene delivery	lowest transfection efficiency after serum treatment	
